Test results reported in patent publication US10988478B1, “Pyrazolo[1,5a]pyrimidine derivatives as IRAK4 modulators” (Genentech, Inc., priority 2015, dated 2021).

target: human IRAK4 (Homo sapiens (Human), UniProt Q9NWZ3); test: IRAK4 kinase inhibition, Transcreener fluorescence polarization ADP assay; format: biochemical; conditions: recombinant full-length His6-IRAK4; 125 uM ATP; 90 min; Ki computed using ATP Km 642 uM
Experimental: Compounds were assayed for inhibition of human IRAK4 and IRAK1 catalytic activity using recombinant enzyme produced from insect cells. Full-length IRAK4 protein, carrying an N-terminal His6-Tag, was obtained from Life Technologies (Carlsbad, Calif., USA). The IRAK1 construct was produced internally and was comprised of IRAK1 residues Arg194 to Ser712, preceded by an NH2-terminal His6 tag and the coding sequence for glutathione-S-transferase.

Sequence of human IRAK4 (Q9NWZ3 whole entry, the tested form may be a part): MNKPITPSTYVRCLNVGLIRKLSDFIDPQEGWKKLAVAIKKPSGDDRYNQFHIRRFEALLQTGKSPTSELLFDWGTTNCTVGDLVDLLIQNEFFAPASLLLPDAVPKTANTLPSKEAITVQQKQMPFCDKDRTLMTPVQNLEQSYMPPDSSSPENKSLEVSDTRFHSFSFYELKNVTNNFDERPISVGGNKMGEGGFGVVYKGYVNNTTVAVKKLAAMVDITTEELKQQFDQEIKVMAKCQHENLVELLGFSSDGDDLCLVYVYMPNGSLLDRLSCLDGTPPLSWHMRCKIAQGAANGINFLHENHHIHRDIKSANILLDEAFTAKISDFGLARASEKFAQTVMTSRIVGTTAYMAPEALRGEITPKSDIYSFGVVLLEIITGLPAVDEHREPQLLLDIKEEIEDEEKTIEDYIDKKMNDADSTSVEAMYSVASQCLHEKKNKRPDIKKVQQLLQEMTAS

Row | Ki [nM] | Compound
1 | 3 | CC1(C)Cc2cc(NC(=O)c3cnn4cccnc34)c(N3CCC(C#N)CC3)cc2O1 [Example 216, N-(6-(4-cyanopiperidin-1-yl)-2,2-dimethyl-2,3-dihydrobenzofuran-5-yl)pyrazolo[1,5-a]pyrimidine-3-carboxamide]
2 | 15 | CC1(C)Cc2cc(NC(=O)c3cnn4cccnc34)c(N3CCC(F)(F)C3)cc2O1 [Example 217, N-(6-(3,3-difluoropyrrolidin-1-yl)-2,2-dimethyl-2,3-dihydrobenzofuran-5-yl)pyrazolo[1,5-a]pyrimidine-3-carboxamide]
3 | 17 | CC1(C)Cc2cc(NC(=O)c3cnn4cccnc34)c(N3CCC(C(F)(F)F)CC3)cc2O1 [Example 218, N-(2,2-dimethyl-6-(4-(trifluoromethyl)piperidin-1-yl)-2,3-dihydrobenzofuran-5-yl)pyrazolo[1,5-a]pyrimidine-3-carboxamide]
4 | 82 | CC(C)C(=O)N1CCN(c2cc3c(cc2NC(=O)c2cnn4cccnc24)CC(C)(C)O3)CC1 [Example 219, N-(6-(4-isobutyrylpiperazin-1-yl)-2,2-dimethyl-2,3-dihydrobenzofuran-5-yl)pyrazolo[1,5-a]pyrimidine-3-carboxamide]
5 | 75 | CC(=O)N1CCCN(c2cc3c(cc2NC(=O)c2cnn4cccnc24)CC(C)(C)O3)CC1 [Example 220, N-(6-(4-acetyl-1,4-diazepan-1-yl)-2,2-dimethyl-2,3-dihydrobenzofuran-5-yl)pyrazolo[1,5-a]pyrimidine-3-carboxamide]
6 | 330 | CN1CCN(c2cc3c(cc2NC(=O)c2cnn4cccnc24)CC(C)(C)O3)CC(O)C1 (centres unmarked) [Example 224, N-[6-(6-hydroxy-4-methyl-1,4-diazepan-1-yl)-2,2-dimethyl-3H-benzofuran-5-yl]pyrazolo[1,5-a]pyrimidine-3-carboxamide]
7 | 45 | CC(C)NC(=O)CN1CCN(c2cc3c(cc2NC(=O)c2cnn4cccnc24)CC(C)(C)O3)CC1 [Example 225, N-(6-(4-(2-(Isopropylamino)-2-oxoethyl)piperazin-1-yl)-2,2-dimethyl-2,3-dihydrobenzofuran-5-yl)pyrazolo[1,5-a]pyrimidine-3-carboxamide]
8 | 6 | CC1(C)Cc2cc(NC(=O)c3cnn4cccnc34)c(N3CCN(C(C)(C)C(N)=O)CC3)cc2O1 [Example 226, N-(6-(4-(1-Amino-2-methyl-1-oxopropan-2-yl)piperazin-1-yl)-2,2-dimethyl-2,3-dihydrobenzofuran-5-yl)pyrazolo[1,5-a]pyrimidine-3-carboxamide]
9 | 490 | C[C@@H]1CN(c2cc3c(cc2NC(=O)c2cnn4cccnc24)CC(C)(C)O3)C[C@H](C)N1CC(N)=O [Example 227, N-(6-((3R,5S)-4-(2-Amino-2-oxoethyl)-3,5-dimethylpiperazin-1-yl)-2,2-dimethyl-2,3-dihydrobenzofuran-5-yl)pyrazolo[1,5-a]pyrimidine-3-carboxamide]
10 | 48 | CC1(C)Cc2cc(NC(=O)c3cnn4cccnc34)c(N3CCN(CC(=O)N4CCOCC4)CC3)cc2O1 [Example 228, N-(2,2-Dimethyl-6-(4-(2-morpholino-2-oxoethyl)piperazin-1-yl)-2,3-dihydrobenzofuran-5-yl)pyrazolo[1,5-a]pyrimidine-3-carboxamide]
11 | 260 | Cc1nccc(C2CCN(c3cc4c(cc3NC(=O)c3cnn5cccnc35)CC(C)(C)O4)C2)n1 (centres unmarked) [Example 229, N-(2,2-Dimethyl-6-(3-(2-methylpyrimidin-4-yl)pyrrolidin-1-yl)-2,3-dihydrobenzofuran-5-yl)pyrazolo[1,5-a]pyrimidine-3-carboxamide]
12 | 18 | CC1(C)Cc2cc(NC(=O)c3cnn4cccnc34)c(N3CCN(CC4CCCO4)CC3)cc2O1 (centres unmarked) [Example 230, N-(2,2-Dimethyl-6-(4-((tetrahydrofuran-2-yl)methyl)piperazin-1-yl)-2,3-dihydrobenzofuran-5-yl)pyrazolo[1,5-a]pyrimidine-3-carboxamide]
13 | 3 | CC1(C)Cc2cc(NC(=O)c3cnn4cccnc34)c(N3CCN(CCn4ccnc4)CC3)cc2O1 [Example 231, N-(6-(4-(2-(1H-Imidazo1-1-yl)ethyl)piperazin-1-yl)-2,2-dimethyl-2,3-dihydrobenzofuran-5-yl)pyrazolo[1,5-a]pyrimidine-3-carboxamide]
14 | 34 | CN(C)C(=O)CN1CCN(c2cc3c(cc2NC(=O)c2cnn4cccnc24)CC(C)(C)O3)CC1 [Example 232, N-(6-(4-(2-(Dimethylamino)-2-oxoethyl)piperazin-1-yl)-2,2-dimethyl-2,3-dihydrobenzofuran-5-yl)pyrazolo[1,5-a]pyrimidine-3-carboxamide]
15 | 100 | CC1(C)Cc2cc(NC(=O)c3cnn4cccnc34)c(N3CCn4ccnc4C3)cc2O1 [Example 233]
16 | 33 | CC1(C)Cc2cc(NC(=O)c3cnn4cccnc34)c(N3CC4CCOC4C3)cc2O1 (centres unmarked) [Example 234, N-(6-(Hexahydro-5H-furo[2,3-c]pyrrol-5-yl)-2,2-dimethyl-2,3-dihydrobenzofuran-5-yl)pyrazolo[1,5-a]pyrimidine-3-carboxamide]
17 | 13 | CC1(C)Cc2cc(NC(=O)c3cnn4cccnc34)c(N3CCC(C(N)=O)C3)cc2O1 (centres unmarked) [Example 236, N-(6-(3-Carbamoylpyrrolidin-1-yl)-2,2-dimethyl-2,3-dihydrobenzofuran-5-yl)pyrazolo[1,5-a]pyrimidine-3-carboxamide]
18 | 810 | CC1(C)Cc2cc(NC(=O)c3cnn4cccnc34)c(N3CC4COCC(C3)C4O)cc2O1 (centres unmarked) [Example 237, N-(6-(9-Hydroxy-3-oxa-7-azabicyclo[3.3.1]nonan-7-yl)-2,2-dimethyl-2,3-dihydrobenzofuran-5-yl)pyrazolo[1,5-a]pyrimidine-3-carboxamide]
19 | 36 | CC1(C)Cc2cc(NC(=O)c3cnn4cccnc34)c(N3CCc4[nH]cnc4C3)cc2O1 [Example 238, N-(2,2-Dimethyl-6-(1,4,6,7-tetrahydro-5H-imidazo[4,5-c]pyridin-5-yl)-2,3-dihydrobenzofuran-5-yl)pyrazolo[1,5-a]pyrimidine-3-carboxamide]
20 | 120 | COC1C2CCC1N(c1cc3c(cc1NC(=O)c1cnn4cccnc14)CC(C)(C)O3)C2 (centres unmarked) [Example 239, N-(6-(7-Methoxy-2-azabicyclo[2.2.1]heptan-2-yl)-2,2-dimethyl-2,3-dihydrobenzofuran-5-yl)pyrazolo[1,5-a]pyrimidine-3-carboxamide]
21 | 27 | CC1(C)Cc2cc(NC(=O)c3cnn4cccnc34)c(N3CCC4CC43)cc2O1 (centres unmarked) [Example 240, N-(6-(2-Azabicyclo[3.1.0]hexan-2-yl)-2,2-dimethyl-2,3-dihydrobenzofuran-5-yl)pyrazolo[1,5-a]pyrimidine-3-carboxamide]
22 | 15 | CC1(C)Cc2cc(NC(=O)c3cnn4cccnc34)c(N3CCC(S(N)(=O)=O)C3)cc2O1 (centres unmarked) [Example 241, N-(2,2-Dimethyl-6-(3-sulfamoylpyrrolidin-1-yl)-2,3-dihydrobenzofuran-5-yl)pyrazolo[1,5-a]pyrimidine-3-carboxamide]

Row | Compound | Ki [nM]
23 | CC1(C)Cc2cc(NC(=O)c3cnn4cccnc34)c(N3CCC(c4nnco4)CC3)cc2O1 [Example 235, N-(6-(4-(1,3,4-Oxadiazol-2-yl)piperidin-1-yl)-2,2-dimethyl-2,3-dihydrobenzofuran-5-yl)pyrazolo[1,5-a]pyrimidine-3-carboxamide] | 4
